{"source": "patent US20020004042A1", "about": "“Gene therapy for pulmonary edema using adenovirus vectors encoding a beta2adrenergic receptor gene” (priority 2000, published 2002)", "key": {"Na,K-ATPase": {"system": "Na,K-ATPase", "assay": "Western analysis of Na,K-ATPase α1 and β1 in basolateral membrane of A549 cells", "assay_type": "cell-based, human", "conditions": "ICI 118,551 10^-6 M 10 minutes prior to procaterol", "protocol": "To test if β2AR overexpression can affect active Na^+ transport in vitro, A549 cells were treated as described above prior to measurement of ouabain-sensitive Na^+ transport (an index of Na,K-ATPase activity). […] Additional studies done to establish the mechanisms responsible for this finding included quantification of Na,K-ATPase α1 and β1 expression in the basolateral membrane of A549 cells."}, "rat lungs": {"system": "rat lungs", "assay": "Lung liquid clearance, fluid-filled isolated perfused rat lung preparation", "assay_type": "in vivo, Sprague-Dawley rats", "conditions": "procaterol 100 μg every 8 hours by gavage", "protocol": "To test if β2AR gene transfer could increase transgene expression and if overexpression could affect the transepithelial osmotic gradient necessary to achieve pulmonary edema clearance, normal Sprague-Dawley rats were infected with the vectors disclosed in Example 1. 250-300 gm male Sprague-Dawley rats were lightly sedated with pentobarbital prior to orotracheal intubation with a 14 g angiocatheter. Adenovirus (4×10^9 pfu) was suspended in […] of a 50% surfactant/50% dialysis buffer mixture (Surfanta, Abbott Laboratories, Columbus, Ohio). […]\nSeven days after infection, whole lung transgene expression was measured via Western analysis using a rabbit anti-human β2AR antibody and chemiluminescent detection method. […] To test for in vivo transgene function lung liquid clearance was measured using a well-established isolated lung preparation. […]\nTo test if agonist-induced loss of receptor function and/or expression occurs in the alveolar epithelium normal rats were treated with the β2AR specific agonist procaterol (100 μg every 8 hours by gavage). Lung liquid clearance was then measured using a fluid-filled isolated lung preparation in the presence of procaterol (10^−6 M instilled into the alveolar airspace and perfused through the pulmonary artery) beginning 4 hours after the first dose. […]"}, "β2AR": {"molecular_target": "T1, β2AR (Rattus norvegicus, UniProt P10608)", "T1 construct": "from tissue; host or cells: apical membranes of rat peripheral lung", "T1 sequence (P10608 whole entry)": "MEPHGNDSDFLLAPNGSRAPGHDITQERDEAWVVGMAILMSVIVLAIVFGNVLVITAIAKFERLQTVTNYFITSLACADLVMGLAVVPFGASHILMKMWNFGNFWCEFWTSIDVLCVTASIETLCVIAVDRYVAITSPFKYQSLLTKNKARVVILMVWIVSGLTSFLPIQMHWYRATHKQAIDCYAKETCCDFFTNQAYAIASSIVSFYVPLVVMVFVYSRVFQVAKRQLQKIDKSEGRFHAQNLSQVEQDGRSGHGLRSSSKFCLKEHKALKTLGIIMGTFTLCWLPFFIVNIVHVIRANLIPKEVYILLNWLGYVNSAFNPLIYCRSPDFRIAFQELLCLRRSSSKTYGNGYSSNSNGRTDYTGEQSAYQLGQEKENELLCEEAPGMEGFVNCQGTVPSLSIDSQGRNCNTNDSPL", "assay": "Western analysis of β2AR in apical membranes of peripheral lung of procaterol-treated rats", "assay_type": "in vivo", "conditions": "procaterol 100 μg every 8 hours by gavage", "protocol": "To test if agonist-induced loss of receptor function and/or expression occurs in the alveolar epithelium normal rats were treated with the β2AR specific agonist procaterol (100 μg every 8 hours by gavage). Lung liquid clearance was then measured using a fluid-filled isolated lung preparation in the presence of procaterol (10^−6 M instilled into the alveolar airspace and perfused through the pulmonary artery) beginning 4 hours after the first dose. […] Thus, the loss of catecholamine responsive lung liquid clearance in these rats is likely due, in part, to receptor downregulation."}}}
{"smiles": "Cc1ccc(OCC(O)C(C)NC(C)C)c2c1CCC2", "note": "(stereo not shown) [ICI 118,551]", "values": [{"measurement": "effect of antagonist pre-treatment on recruitment of Na,K-ATPase to the cell membrane", "setting": "Na,K-ATPase", "value": "blocked"}]}
{"smiles": "CCC(NC(C)C)C(O)c1ccc(O)c2[nH]c(=O)ccc12", "note": "(stereo not shown) [procaterol]", "values": [{"measurement": "lung liquid clearance in presence of procaterol after procaterol pretreatment, 4 hours", "setting": "rat lungs; 4 hours after first dose, 10^-6 M during measurement", "value": "not different from untreated controls"}, {"measurement": "lung liquid clearance in presence of procaterol after procaterol pretreatment, 24 hours", "setting": "rat lungs; 24 hours", "value": "remained less than naive rats"}, {"measurement": "β2AR expression in apical membranes of peripheral lung", "setting": "β2AR", "value": "marked reductions"}]}
